From patent US20250000847A1, “TREATMENT OF NEURODEGENERATIVE DISEASES WITH HDAC INHIBITORS” (CASE WESTERN RESERVE UNIVERSITY, priority 2021, published 2025)

Assays:
[1] = test system: MHC Class I (H-2Kb) bound to OVA257-264 on reactive astrocytes; experiment: OVA257-264 peptide antigen cross presentation assay; format: cell-based, mouse
Method: To test whether HDAC inhibitors block the ability of reactive astrocytes to cross present exogenous antigen, cells were plated down in 96-well plates at a density of about 500 cells/mm^2. Cells were then treated with HDAC inhibitors for 1 hr prior to the addition of reactive astrocyte driving factors as the concentrations stated above. Cells were incubated for 24 hrs, after which, media was washed out and replaced with media containing the peptide fragment ovalbumin 257-264 (OVA257-264). Cells were then incubated overnight, and then stained for 2 hrs at 37° C. with APC-conjugated antibody against MHC Class I (H-2Kb) bound to OVA257-264, then visualized. The percent of H-2Kb positive cells as a percent of total live cells was determined (FIG. 3).
After 24 hours of treatment, these cells were cultured in the presence of the OVA257264 Peptide (GenScript RP10611 or Sigma S7951). After 12 hours, the cells were live-stained for two hours using a conjugated antibody targeted against an OVA257-264 peptide antigen. The cells were then fixed and imaged using the PerkinElmer Operetta CLS High-Content Analysis System.

CCL5 = CCL5 secretion by reactive astrocytes (ELISA); format: cell-based, mouse; conditions: for reduction of CCL5 secretion: compared to vehicle control
Method: Astrocytes were plated and treated exactly as described for the antigen cross presentation assay. However, after 24 hrs of incubation with either reactive astrocyte driving factors alone or with HDAC inhibitor treatment, conditioned media from the cells was collected and assayed for CCL5 using a commercially available colorimetric ELISA kit (RnD Cat #: DY478-05). Data was then fit to a standard four parameter logistic (4PL) curve and presented as pg/mL/cell, normalized to reactive astrocytes plus DMSO vehicle (FIG. 4).
Media was collected from mouse P2 primary astrocytes that had been cultured for 24 hrs in the presence of cytokines with and without HDAC3 inhibitors and compared to media from astrocytes not treated with cytokines. The concentration of CCL5, a cytokine secreted by reactive astrocytes, was measured in each of the respective media conditions based on the direct adsorption of CCL5 to a pre-coated capture antibody on the ELISA assay plate. The ELISA sandwich assay was performed according to the manufacturer's instructions (DY478-05, R&D Systems). Relative CCL5 concentration were measured based on absorbance measured by a plate reader.

RelA/P65 = experiment: Nuclear RelA/P65 in reactive astrocytes; format: cell-based, mouse
Method: For immunocytochemistry, cells were fixed with ice-cold 4% PFA for 15 minutes at room temperature, washed three times with PBS, blocked and permeabilized with 10% donkey serum and 0.1% Triton X-100 in PBS for 1 hr, and then stained with primary overnight followed by three washes with PBS, and then 1 hr incubation with Alexaflour secondary antibodies and DAPI. Stained cells were imaged using the PerkinElmer Operetta CLS High-Content Analysis System and analyzed using automated scripts in PerkinElmer Columbus Image Analysis software. Primary antibodies used were GBP2 (ProteinTech, 11854-1-AP), vimentin (BioLegend, 919101), RelA/P65 (Cell Signaling Tech, 6956), MBP (Abeam, AB7349).

[2] = test system: NF-κB (RelA/P65) transcriptional activity; experiment: NF-κB Jurkat reporter assay; format: cell-based
Text: NF-κB luciferase reporter Jurkat T-cells were used to measure NF-κB transcriptional activity in response to reactive astrocyte driving cytokines with or HDAC inhibitors and other validated hits from the primary screen. NFκB luciferase reporter Jurkat T-Cells (BPS Biosciences 60651) were purchased from BPS Bioscience. Within this cell line, the firefly luciferase gene is controlled by four copies of an NF-κB response element located upstream of the TATA promoter. Following activation by an external stimulant, endogenous NF-κB transcription factors bound to the DNA response elements to induce transcription of the luciferase gene.

[3] = Pharmacokinetics, brain tissue; format: in vivo, mouse
Method: Mice were then perfused with saline to remove blood from the brain. Brain tissue was then collected and snap frozen. Brain tissues were thawed at room temperature and homogenized in PBS. Calibration standards and study samples were extracted with 3× volume of acetonitrile containing 0.1% formic acid+200 ng/ml internal standard solution. Samples were then vortexed each for 1 minute and then transferred to an Eppendorf R5417R and centrifuged at 14000 rpm for 7 minutes. Following extraction of tissue homogenate calibrators and study samples were transferred directly to an autosampler microtiter plate for analysis. Samples were analyzed by LC-MS-MS in the positive ion electrospray ionization mode.

[4] = test system: acetylated histone 4 (AcH4); experiment: Acetylated histone 4 in vivo (target engagement); design: species or system mouse; conditions: chronic daily 10 mg/kg, then two days of 5 mg/kg LPS
Method: Mice were perfused with PBS followed by 4% paraformaldehyde, after which brains were extracted and cryopreserved in 30% sucrose then frozen in OCT and sectioned. The stain slides were washed with PBS then incubated overnight with primary antibody against acetyl-Histone H4 (EMD Millipore, 06-866). After primary incubation slides were then washed and labeled with AlexaFluor secondary antibodies (ThermoFisher). Images were captured on a Hamamatsu Nanozoomer S60 Slide scanner with NDP 2.0 software. Image analysis was performed using Perkin Elmer Columbus automated software.

[5] = test system: very long chain fatty acids (VLCFA); experiment: Very long chain fatty acids produced by reactive astrocytes; format: cell-based; conditions: compared to cells treated with DMSO

Nc1cc(F)ccc1NC(=O)/C=C/c1cnn(C/C=C/c2ccccc2)c1 [RGFP966]
ability of reactive astrocytes to cross present antigen on MHC Class I ([1]; FIG. 3): decrease | inhibition of antigen cross-presentation by MHC Class I ([1]; at either 2.5 or 5.0 μM): completely inhibited | reduction of CCL5 secretion (CCL5; 2.5 μM): about 70% | reduction of CCL5 secretion (CCL5; 5.0 μM): more than 80% | secretion of CCL5 by reactive astrocytes (CCL5; FIG. 4): significantly decrease | nuclear RelA/P65 (RelA/P65): decreases | RelA/P65 driven transcription (transcriptional activity) [2]: decreases | concentration in brain tissue ([3]; chronic treatment, 10 mg/kg i.p. daily): equal to the IC50 | brain permeance ([3]; mice, 10 mg/kg i.p.): brain permeant | levels of acetylated histone 4 (AcH4) [4]: increased | levels of toxic very long chain fatty acids (VLCFA) [5]: decreased levels
